From patent US9580413B2, “Substituted pyrrolidines as ROS tyrosine kinase inhibitors” (NIPPON SHINYAKU CO., LTD., priority 2012, dated 2017) come the findings set out here.

Assay [1] has as its target T1, JAK2 tyrosine kinase (Homo sapiens, UniProt O60674).
T1 construct: purchased Carna Biosciences, Inc
Put plainly: JAK2 tyrosine kinase inhibitory activity test (ELISA). The settings on record: 25 μM ATP substrate solution, 30° C., one hour. The class given is biochemical, humans. As to the method:
(§1) 1. Preparation of Test Substance:
(§2) A test substance was dissolved in dimethyl sulfoxide (DMSO) to 10 mM and further diluted with DMSO to concentrations of 100-fold of the concentrations to be measured (100, 10, 1, 0.1, and 0.01 μM). Furthermore, the resultant was diluted with an assay buffer to 20-fold, thereby preparing a solution as a test substance solution. A solution prepared by diluting DMSO with an assay buffer to 20-fold was used as a negative control. A buffer containing 15 mM Tris-Cl (pH 7.5), 0.01 (v/v) % Tween-20, and 1 mM dithiothreitol was used as the assay buffer.
(§3) 2. Measurement of ROS Tyrosine Kinase Activity and JAK2 Tyrosine Kinase Activity:
(§4) The activity was measured by adopting the ELISA method. […] Finally, an ROS kinase or a JAK2 kinase (derived from humans, Carna Biosciences, Inc.) (diluted with the assay buffer to 0.25 nM) was added to the plate at 20 μL per well, and the resulting mixture was stirred. A reaction was performed at 30° C. for one hour. After the plate was washed 4 times with a washing buffer (50 mM Tris-Cl (pH 7.5), 150 mM NaCl, and 0.02 (v/v) % Tween-20), a blocking buffer (0.1% bovine serum albumin, 50 mM Tris-Cl (pH 7.5), 150 mM NaCl, and 0.02 (v/v) % Tween-20) was added to the plate at 150 μL per well, and incubated at 30° C. for 30 minutes. The blocking buffer was then removed, and a horse radish peroxidase-labeled anti-phosphorylated tyrosine antibody (BD Biosciences, Inc.) (diluted with the blocking buffer to 10,000-fold) was added to the plate at 100 μL per well, and the plate was incubated at 30° C. for 30 minutes. After the plate was washed 4 times with the washing buffer, a 3,3′,5,5′-tetramethylbenzidine solution (Sigma-Aldrich Co., Ltd.) was added to the plate at 100 μL per well to develop the color for 10 minutes. The reaction was stopped by adding 0.1 M sulfuric acid at 100 μL per well. An absorbance at 450 nm was measured with a microplate reader (Model 3550, manufactured by BIO-RAD, Benchmark, manufactured by BIO-RAD, or iMARK, manufactured by BIO-RAD).
(§5) 3. Analysis of Measurement Results:
(§6) A non-linear regression analysis was performed for the measured absorbance with an SAS system (SAS Institute Inc.), and a concentration of each of the test substances of inhibiting the ROS tyrosine kinase activity or JAK2 tyrosine kinase activity at 50% (IC50) was calculated. The inhibitory activity (IC50, nM) of each of the test substances against the ROS tyrosine kinase or JAK2 tyrosine kinase is shown in Tables 6 to 8.
Background: ELISA stands for enzyme-linked immunosorbent assay.

Assay [2] addresses T2, ROS tyrosine kinase (Homo sapiens, UniProt P08922).
T2 construct: purchased Carna Biosciences, Inc
Put plainly: ROS tyrosine kinase inhibitory activity test (ELISA). Format: biochemical, humans. As to conditions: 25 μM ATP substrate solution, 30° C., one hour. The protocol:
as §1, §2, §3, §4, §5, §6

pIC50: −log10 of the molar value. Where a name gives a salt, the structure may show the parent alone.

T1 sequence (O60674 whole entry): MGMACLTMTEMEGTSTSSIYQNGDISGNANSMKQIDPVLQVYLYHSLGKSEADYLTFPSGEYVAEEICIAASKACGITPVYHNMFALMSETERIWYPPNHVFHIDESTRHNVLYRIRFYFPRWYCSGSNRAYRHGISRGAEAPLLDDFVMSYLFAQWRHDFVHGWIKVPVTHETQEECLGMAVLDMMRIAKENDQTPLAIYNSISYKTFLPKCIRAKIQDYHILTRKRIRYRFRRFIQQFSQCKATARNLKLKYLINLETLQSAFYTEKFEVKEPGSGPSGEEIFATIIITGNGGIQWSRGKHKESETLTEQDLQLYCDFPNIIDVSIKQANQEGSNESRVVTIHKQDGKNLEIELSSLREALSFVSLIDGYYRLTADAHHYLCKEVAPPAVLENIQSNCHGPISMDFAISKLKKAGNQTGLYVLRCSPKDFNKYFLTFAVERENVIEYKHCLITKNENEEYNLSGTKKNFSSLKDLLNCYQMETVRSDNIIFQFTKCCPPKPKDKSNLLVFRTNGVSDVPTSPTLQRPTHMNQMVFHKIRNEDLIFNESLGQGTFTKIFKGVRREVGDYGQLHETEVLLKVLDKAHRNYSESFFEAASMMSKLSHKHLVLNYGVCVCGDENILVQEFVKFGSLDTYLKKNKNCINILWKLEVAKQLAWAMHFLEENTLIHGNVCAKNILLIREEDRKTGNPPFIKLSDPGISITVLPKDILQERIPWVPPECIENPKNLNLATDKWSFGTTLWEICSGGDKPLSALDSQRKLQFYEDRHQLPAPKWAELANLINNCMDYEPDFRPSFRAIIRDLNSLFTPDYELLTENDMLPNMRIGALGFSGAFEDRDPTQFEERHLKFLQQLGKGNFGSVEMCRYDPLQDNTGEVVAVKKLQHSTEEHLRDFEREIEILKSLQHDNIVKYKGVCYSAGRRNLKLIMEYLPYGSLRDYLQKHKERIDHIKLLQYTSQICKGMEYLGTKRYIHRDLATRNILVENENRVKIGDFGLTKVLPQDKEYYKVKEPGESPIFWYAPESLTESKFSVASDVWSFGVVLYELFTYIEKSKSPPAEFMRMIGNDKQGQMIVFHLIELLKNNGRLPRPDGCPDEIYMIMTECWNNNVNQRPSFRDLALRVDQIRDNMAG
T2 sequence (P08922 28-2347): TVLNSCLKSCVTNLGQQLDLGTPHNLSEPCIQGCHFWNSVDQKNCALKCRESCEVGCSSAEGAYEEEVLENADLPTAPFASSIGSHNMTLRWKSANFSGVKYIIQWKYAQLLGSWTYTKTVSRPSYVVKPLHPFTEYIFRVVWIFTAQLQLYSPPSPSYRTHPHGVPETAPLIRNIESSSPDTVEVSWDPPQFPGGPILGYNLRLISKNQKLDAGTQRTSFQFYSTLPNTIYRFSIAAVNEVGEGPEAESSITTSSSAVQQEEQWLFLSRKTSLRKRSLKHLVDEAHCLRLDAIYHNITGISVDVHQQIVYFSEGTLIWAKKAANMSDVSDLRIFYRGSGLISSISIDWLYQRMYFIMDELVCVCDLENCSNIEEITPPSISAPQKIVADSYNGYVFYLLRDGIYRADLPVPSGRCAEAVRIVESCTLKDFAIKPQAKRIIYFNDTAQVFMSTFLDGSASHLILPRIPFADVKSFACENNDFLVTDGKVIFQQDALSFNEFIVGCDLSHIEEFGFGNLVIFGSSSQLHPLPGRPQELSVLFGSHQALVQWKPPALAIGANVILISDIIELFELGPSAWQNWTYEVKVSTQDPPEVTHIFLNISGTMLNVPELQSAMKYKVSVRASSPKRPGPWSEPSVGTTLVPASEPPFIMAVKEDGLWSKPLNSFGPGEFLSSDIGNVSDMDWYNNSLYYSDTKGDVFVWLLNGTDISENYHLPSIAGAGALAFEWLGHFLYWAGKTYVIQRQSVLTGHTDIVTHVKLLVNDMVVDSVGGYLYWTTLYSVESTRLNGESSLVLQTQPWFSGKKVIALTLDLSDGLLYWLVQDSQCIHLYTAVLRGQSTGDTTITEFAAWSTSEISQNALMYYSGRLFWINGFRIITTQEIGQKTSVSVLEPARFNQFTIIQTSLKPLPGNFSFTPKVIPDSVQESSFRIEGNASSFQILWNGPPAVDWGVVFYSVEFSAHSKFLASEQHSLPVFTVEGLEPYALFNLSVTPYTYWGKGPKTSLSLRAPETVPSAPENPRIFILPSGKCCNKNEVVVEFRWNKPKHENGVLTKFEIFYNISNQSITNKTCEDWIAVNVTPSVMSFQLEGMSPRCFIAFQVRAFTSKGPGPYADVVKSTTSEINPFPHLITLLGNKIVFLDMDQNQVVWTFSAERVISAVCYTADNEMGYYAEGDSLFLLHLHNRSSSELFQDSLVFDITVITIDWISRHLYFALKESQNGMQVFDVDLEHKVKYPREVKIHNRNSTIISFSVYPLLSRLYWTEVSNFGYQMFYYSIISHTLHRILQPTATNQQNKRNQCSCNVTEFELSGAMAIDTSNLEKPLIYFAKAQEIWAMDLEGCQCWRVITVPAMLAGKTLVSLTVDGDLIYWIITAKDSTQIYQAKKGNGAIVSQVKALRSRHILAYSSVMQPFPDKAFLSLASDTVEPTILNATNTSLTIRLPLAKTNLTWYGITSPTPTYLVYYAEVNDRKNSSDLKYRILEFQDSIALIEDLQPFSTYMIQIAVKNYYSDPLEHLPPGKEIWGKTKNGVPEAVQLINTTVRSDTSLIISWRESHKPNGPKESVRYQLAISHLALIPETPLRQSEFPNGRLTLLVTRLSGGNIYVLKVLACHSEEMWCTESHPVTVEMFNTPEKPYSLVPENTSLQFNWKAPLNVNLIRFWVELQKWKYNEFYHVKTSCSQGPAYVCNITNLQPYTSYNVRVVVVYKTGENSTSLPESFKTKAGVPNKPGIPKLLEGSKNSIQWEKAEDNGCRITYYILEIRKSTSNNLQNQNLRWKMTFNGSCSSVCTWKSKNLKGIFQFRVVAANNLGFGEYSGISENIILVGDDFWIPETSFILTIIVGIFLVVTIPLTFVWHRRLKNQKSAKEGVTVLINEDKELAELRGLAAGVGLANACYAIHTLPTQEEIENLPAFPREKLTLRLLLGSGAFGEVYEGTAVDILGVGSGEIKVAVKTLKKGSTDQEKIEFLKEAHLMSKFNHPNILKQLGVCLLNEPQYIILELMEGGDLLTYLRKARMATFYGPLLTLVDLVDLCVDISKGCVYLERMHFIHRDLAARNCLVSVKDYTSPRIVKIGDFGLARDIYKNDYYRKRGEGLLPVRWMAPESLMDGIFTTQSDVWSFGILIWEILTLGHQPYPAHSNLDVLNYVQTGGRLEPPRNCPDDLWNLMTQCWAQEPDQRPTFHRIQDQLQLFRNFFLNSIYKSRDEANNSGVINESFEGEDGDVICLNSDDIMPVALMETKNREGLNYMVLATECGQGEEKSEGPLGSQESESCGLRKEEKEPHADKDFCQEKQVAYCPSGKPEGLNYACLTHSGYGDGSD

One may read the pIC50 as −log10 of the IC50, conventionally taken in molar units. Lower therefore signals a high IC50. Consider `Cc1ccc(C2CCCN2c2ncc(C)c(Nc3ncc(C#N)s3)n2)cc1` (centres unmarked) [Example 2, 2-({5-Methyl-2-[2-(4-methylphenyl)pyrrolidin-1-yl]pyrimidin-4-yl}amino)-1,3-thiazole-5-carbonitrile], for which the pIC50 is 6.57 in assay [1] and 8.49 in assay [2].

Turning to `COc1c(Nc2ncc(C#N)s2)nc(N2CCCC2c2ccc(C)cc2)nc1-c1cncnc1` (centres unmarked) [Example 3, 2-({5-Methoxy-2-[2-(4-methylphenyl)pyrrolidin-1-yl]-4,5′-bipyrimidin-6-yl}amino)-1,3-thiazole-5-carbonitrile], the pIC50 is under 6.00 in assay [1] and 8.07 in assay [2].

As to `COc1c(Nc2ncc(C#N)s2)nc(N2CCCC2c2ccc(C)cc2)nc1-c1cccnc1` (centres unmarked) [Example 5, 2-({5-Methoxy-2-[2-(4-methylphenyl)pyrrolidin-1-yl]-6-(pyridin-3-yl)pyrimidin-4-yl}amino)-1,3-thiazole-5-carbonitrile], the pIC50 is under 6.00 in assay [1] and 8.09 in assay [2].

Regarding `Cc1ccc(C2CCCN2c2nc(Nc3ncc(C#N)s3)c(C)c(-c3cnn(C)c3)n2)cc1` (centres unmarked) [Example 8, 2-({5-Methyl-2-[2-(4-methylphenyl)pyrrolidin-1-yl]-6-(1-methyl-1H-pyrazol-4-yl)pyrimidin-4-yl}amino)-1,3-thiazole-5-carbonitrile], the figures for the pIC50 in assay [1] and in assay [2] were under 6.00 and 8.41, respectively.

Regarding `COc1c(Nc2ncc(C#N)s2)nc(N2CCC[C@H]2c2ccc(C)cc2)nc1-c1cnn(C)c1` [Example 10, 2-({5-Methoxy-2-[(2S)-2-(4-methylphenyl)pyrrolidin-1-yl]-6-(l-methyl-1H-pyrazol-4-yl)pyrimidin-4-yl}amino)-1,3-thiazole-5-carbonitrile], the pIC50 in assay [1] is 6.59; in assay [2], 8.96.

In the case of `COc1cc(C)ccc1C1CCCN1c1ncc(OC)c(Nc2ncc(C#N)s2)n1` (centres unmarked) [Example 14, 2-({5-Methoxy-2-[2-(2-methoxy-4-methylphenyl)pyrrolidin-1-yl]pyrimidin-4-yl}amino)-1,3-thiazole-5-carbonitrile], the pIC50 in assay [1] is 6.46; in assay [2], 8.60.

Turning to `Cc1ccc(C2CCCN2c2nc(Nc3ncc(C#N)s3)c(C)c(-c3ccc(O)nc3)n2)cc1` (centres unmarked) [Example 16, 2-({6-(6-Hydroxypyridin-3-yl)-5-methyl-2-[2-(4-methylphenyl)pyrrolidin-1-yl]pyrimidin-4-yl}amino)-1,3-thiazole-5-carbonitrile], the pIC50 in assay [1] is 7.44; in assay [2], 8.82.

Regarding `Cc1ccc(C2CCCN2c2nc(C)c(Br)c(Nc3ncc(C#N)s3)n2)cc1` (centres unmarked) [Example 17, 2-({5-Bromo-6-methyl-2-[2-(4-methylphenyl)pyrrolidin-1-yl]pyrimidin-4-yl}amino)-1,3-thiazole-5-carbonitrile], the pIC50 was under 6.00 in assay [1] and 7.41 in assay [2].

For the compound `COc1c(Nc2ncc(C#N)s2)nc(N2CCCC2c2ccc(C)cc2)nc1C1CC1` (centres unmarked) [Example 18, 2-({6-Cyclopropyl-5-methoxy-2-[2-(4-methylphenyl)pyrrolidin-1-yl]pyrimidin-4-yl}amino)-1,3-thiazole-5-carbonitrile], the results for the pIC50 in assay [1] and in assay [2] were under 6.00 and 6.92, respectively.

Consider `Cc1ccc([C@@H]2CCCN2c2cnc(C)c(Nc3ncc(C#N)s3)n2)cc1` [Example 20, 2-({3-Methyl-6-[(2S)-2-(4-methylphenyl)pyrrolidin-1-yl]pyrazin-2-yl}amino)-1,3-thiazole-5-carbonitrile hydrochloride], for which the pIC50 is 6.60 in assay [1] and 8.96 in assay [2].

As to `N#Cc1cnc(Nc2nc(N3CCCC3c3ccc(F)cc3)cnc2-c2cnco2)s1` (centres unmarked) [Example 21, 2-({6-[2-(4-Fluorophenyl)pyrrolidin-1-yl]-3-(1,3-oxazol-5-yl)pyrazin-2-yl}amino)-1,3-thiazole-5-carbonitrile], the pIC50 was under 6.00 in assay [1] and 7.89 in assay [2].

For `N#Cc1cnc(Nc2nc(N3CCCC3c3ccc(F)cc3)cnc2-c2cncnc2)s1` (centres unmarked) [Example 22, 2-({6-[2-(4-Fluorophenyl)pyrrolidin-1-yl]-3-(pyrimidin-5-yl)pyrazin-2-yl}amino)-1,3-thiazole-5-carbonitrile], the pIC50 is under 6.00 in assay [1] and 7.33 in assay [2].

As for `COc1cc(C)ccc1C1CCCN1c1cnc(C2CC2)c(Nc2ncc(C#N)s2)n1` (centres unmarked) [Example 23, 2-({3-Cyclopropyl-6-[2-(2-methoxy-4-methylphenyl)pyrrolidin-1-yl]pyrazin-2-yl}amino)-1,3-thiazole-5-carbonitrile], the pIC50 was under 6.00 in assay [1] and 8.06 in assay [2].

Regarding `COc1ccccc1C1CCCN1c1cnc(C2CC2)c(Nc2ncc(C#N)s2)n1` (centres unmarked) [Example 24, 2-({3-Cyclopropyl-6-[2-(2-methoxyphenyl)pyrrolidin-1-yl]pyrazin-2-yl}amino)-1,3-thiazole-5-carbonitrile], the pIC50 in assay [1] is 6.68; in assay [2], 8.18.

Regarding `N#Cc1cnc(Nc2nc(N3CCCC3c3ccc(F)cc3)cnc2-c2ccoc2)s1` (centres unmarked) [Example 25, 2-({6-[2-(4-Fluorophenyl)pyrrolidin-1-yl]-3-(furan-3-yl)pyrazin-2-yl}amino)-1,3-thiazole-5-carbonitrile], the pIC50 in assay [1] was under 6.00; in assay [2] it was 7.59.

Turning to `Cn1cc(-c2ncc(N3CCCC3c3ccc(F)cc3)nc2Nc2ncc(C#N)s2)cn1` (centres unmarked) [Example 28, 2-({6-[2-(4-Fluorophenyl)pyrrolidin-1-yl]-3-(1-methyl-1H-pyrazol-4-yl)pyrazin-2-yl}amino)-1,3-thiazole-5-carbonitrile], the pIC50 in assay [1] was under 6.00; in assay [2] it was 7.29.

With `COc1cc(C)ccc1C1CCCN1c1cncc(Nc2ncc(C#N)s2)n1` (centres unmarked) [Example 30, 2-({6-[2-(2-Methoxy-4-methylphenyl)pyrrolidin-1-yl]pyrazin-2-yl}amino)-1,3-thiazole-5-carbonitrile], the pIC50 was 7.16 in assay [1] and 9.30 in assay [2].

Consider `Cc1cnc(Nc2nc(N3CCCC3c3ccc(Cl)cc3)cnc2C2CC2)s1` (centres unmarked) [Example 31, 6-[2-(4-Chlorophenyl)pyrrolidin-1-yl]-3-cyclopropyl-N-(5-methyl-1,3-thiazol-2-yl)pyrazine-2-amine], for which the pIC50 in assay [1] was 6.41; in assay [2] it was 8.28.

Regarding `COc1cc(C2CCCN2c2cncc(Nc3ncc(C#N)s3)n2)ccc1C` (centres unmarked) [Example 33, 2-({6-[2-(3-Methoxy-4-methylphenyl)pyrrolidin-1-yl]pyrazin-2-yl}amino)-1,3-thiazole-5-carbonitrile], the pIC50 in assay [1] was 6.72; in assay [2], 8.66.

As to `Cc1ccc([C@@H]2CCCN2c2cnc(C3CC3)c(Nc3ncc(C#N)s3)n2)cc1` [Example 35, 2-({3-Cyclopropyl-6-[(2S)-2-(4-methylphenyl)pyrrolidin-1-yl]pyrazin-2-yl}amino)-1,3-thiazole-5-carbonitrile], the pIC50 in assay [1] was under 6.00; in assay [2] it was 8.54.

Regarding `N#Cc1cnc(Nc2nc(N3CCC[C@H]3c3ccc(Cl)cc3)cnc2C2CC2)s1` [Example 36, 2-({6-[(2S)-2-(4-Chlorophenyl)pyrrolidin-1-yl]-3-cyclopropylpyrazin-2-yl}amino)-1,3-thiazole-5-carbonitrile], the results for the pIC50 in assay [1] and in assay [2] were 6.62 and 9.00, respectively.

Turning to `COc1ccc(C2CCCN2c2cncc(Nc3ncc(C#N)s3)n2)cc1` (centres unmarked) [Example 37, 2-({6-[2-(4-Methoxyphenyl)pyrrolidin-1-yl]pyrazin-2-yl}amino)-1,3-thiazole-5-carbonitrile], the pIC50 was 6.25 in assay [1] and 7.89 in assay [2].

With `COc1cccc(C2CCCN2c2cncc(Nc3ncc(C#N)s3)n2)c1` (centres unmarked) [Example 38, 2-({6-[2-(3-Methoxyphenyl)pyrrolidine-1-yl]pyrazin-2-yl}amino)-1,3-thiazole-5-carbonitrile], the pIC50 in assay [1] is 6.21; in assay [2], 7.74.

In the case of `N#Cc1cnc(Nc2nc(N3CCCC3c3ccc(F)cc3)cnc2C2CC2)s1` (centres unmarked) [Example 40, 2-({3-Cyclopropyl-6-[2-(4-fluorophenyl)pyrrolidin-1-yl]pyrazin-2-yl}amino)-1,3-thiazole-5-carbonitrile], the pIC50 was 6.64 in assay [1] and 8.68 in assay [2].

For the compound `Cc1ncc(N2CCCC2c2ccc(F)cc2)nc1Nc1ncc(C#N)s1` (centres unmarked) [Example 41, 2-({6-[2-(4-Fluorophenyl)pyrrolidin-1-yl]-3-methylpyrazin-2-yl}amino)-1,3-thiazole-5-carbonitrile], the pIC50 was 7.68 in assay [1] and 9.15 in assay [2].
